According to patent US20070155771A1, “Methods and means for treating protein conformational disorders” (priority 2003, published 2007):

What was measured:
[1] = system: COS-7 cells expressing an exon 1 fragment of the HD gene with 74 glutamines (Q74); assay: Aggregate formation and abnormal cell nuclei in transiently transfected COS-7 cells expressing Q74; type: cell-based, African green monkey; conditions: 48 hours after transfection
Source text: (§1) Mammalian expression vectors comprising EGFP (pEGFP-C1, Clontech) fused at its C-terminus with a Huntington's Disease gene exon 1 fragment with 74 polyglutamine repeats (Q74) or a polyalanine stretch of 19 repeats (A19) were used (Rankin, J. et al (2000) Biochem. J., 348, 15-19; Narain, Y. et al (1999) J. Med. Genet., 36, 739-746.). A Haemagglutinin-tagged Huntington's Disease gene exon 1 fragment with 74 polyglutamine repeats in pHM6 vector (Q74-HA) was also used. The PC12 stable lines expressing exon 1 of Huntington gene were as described in Wyttenbach A. et al., (2001) Hum. Mol. Genet. 10 1829-45.
(§2) African green monkey kidney cells (COS-7) were grown in Dulbecco's Modified Eagle Medium (DMEM, Sigma) supplemented with 10% Fetal Bovine Serum (FBS), 100 U/ml Penicillin/Streptomycin, 2 mM L-Glutamine and 1 mM Sodium Pyruvate at 37° C., 5% Carbon dioxide. The cells were grown on coverslips in six-well plates for immunofluorescence analysis, or were directly grown in six-well plates to 60-80% confluency for 24 hours for western blot analysis. Transfection was done using LipofectAMINE reagent (Invitrogen) using the manufacturer's protocol. The transfection mixture was replaced by normal culture medium after 5 hours incubation at 37° C. and the transfected cells were analysed by immunofluorescence or immunoblot 48 hours after transfection. The cells were left untreated or treated with 10 mM 3-methyl adenine (3-MA, Sigma), 0.5 mM N^6, N^6, Dimethyl adenosine (DMA, Sigma), 0.2 μg/ml Rapamycin (Sigma), 200 nM Bafilomycin A1 (BafA1, Sigma), 10 μM Lactacystin (Sigma) or 10 μM epoxomicin (Affinity research products ltd.) for 15 hours before fixation for immunofluorescence or processing for western blots. DMA, BafA1, epoxomicin and rapamycin were dissolved in DMSO and 3-MA and lactacystin were in water. Equal amounts of water or DMSO were added to the untreated controls, where relevant. The cells on coverslips were rinsed with 1×PBS, fixed with 4% paraformaldehyde in 1×PBS for 20 min and mounted in antifadent supplemented with 4′,6-diamidino-2-phenylindole (DAPI, 3 μg/ml, Sigma) to allow visualisation of nuclear morphology. The PC12 stable cells were maintained at 75 μg/ml hygromycin in standard medium consisting of high glucose DMEM (Sigma) with 100 U/ml penicillin/streptomycin, 2 mM L-glutamine (Invitrogen), 10% heat-inactivated horse serum (Invitrogen), 5% Tet-approved fetal bovine serum (FBS) (Clontech) and 100 μg/ml G418 (Invitrogen) at 37° C., 10% CO2. The cells were seeded at 1-2×10^5 per well in 6-well plates and were induced with 1 μg/ml doxycycline (Sigma) for 8 hours. The expression of transgenes was switched off by removing doxycycline from the medium. Cells were either left untreated or treated with 3-MA, BafA1, epoxomicin, lactacystin, rapamycin, 10 μg/ml cycloheximide (Sigma) or cycloheximide+rapamycin at the concentrations specified above for 24, 48 or 72 hours and the medium with the inhibitors/activator changed every 24 hours. The cells were then scraped off from the wells into 1.5 ml eppendorf tubes, pelleted at 8000 rpm and washed twice with 1×PBS. They were either fixed with 4% paraformaldehyde for 20 minutes and mounted in DAPI over coverslips on glass slides or processed for western blot analysis. CCI-779 was supplied by Wyeth Pharmaceuticals (Philadelphia). For tissue culture experiments, a stock solution of 1M in ethanol was prepared the day of experiment and was diluted in the appropriate medium
(§3) The pellets for westerns from COS-7 or PC12 cells were lysed on ice in Laemmli buffer (62.5 mM Tris-HCl pH6.8, 5% β-mercaptoethanol, 10% glycerol, and 0.01% bromophenol blue) for 30 min in the presence of protease inhibitors (Roche Diagnostics). The lysates were subjected to SDS-PAGE (10%) electrophoresis and proteins transferred onto nitrocellulose membrane (Amersham Pharmacia Biotech). […]

[2] = system: COS-7 cells expressing EGFP fused to 19 alanines (A19); assay: Aggregate formation and abnormal cell nuclei in transiently transfected COS-7 cells expressing A19; type: cell-based, African green monkey; conditions: immunofluorescence; 48 hours after transfection; drug 15 hours
Source text: as §1, §2, §3

[3] = system: PC12 cell line expressing EGFP-tagged HD exon 1 with Q74; assay: Turnover of Q74 protein and aggregates in stable doxycycline-inducible PC12 cells after switching expression off; type: cell-based, rat
Description: as §2
The pellets for westerns from COS-7 or PC12 cells were lysed on ice in Laemmli buffer (62.5 mM Tris-HCl pH6.8, 5% β-mercaptoethanol, 10% glycerol, and 0.01% bromophenol blue) for 30 min in the presence of protease inhibitors (Roche Diagnostics). The lysates were subjected to SDS-PAGE (10%) electrophoresis and proteins transferred onto nitrocellulose membrane (Amersham Pharmacia Biotech). The primary antibodies used include mouse monoclonal anti-GFP antibody (8362-1, Clontech) at 1:2000, rabbit monoclonal anti-actin antibody (A2066, Sigma) at 1:3000, mouse monoclonal anti-tubulin antibody (Clone DM 1A, Sigma) at 1:1000 and mouse monoclonal anti-HA antibody (Covance) at 1:1000. Blots were probed with Horse Radish Peroxidase (HRP) conjugated anti-mouse or anti-rabbit IgG (Bio Rad) at 1:2000. Bands were visualised using the ECL detection reagent (Amersham). […]

[4] = system: human wild-type, A30P and A53T α-synuclein; assay: α-Synuclein degradation in inducible PC12 cell lines (western blot), all forms; type: cell-based
Source text: Human α-synuclein with a HA tag at the N-terminus and a 6His tag at the C-terminus was amplified from pHM6α-synuclein constructs (Furlong, R. A. et a; 1 (2000) Biochem. J. 346, 577581) and inserted into pTRE2 hyg vector (Clontech) using Nhe I/Sal I sites. Constructs were confirmed by sequencing before use. The pTRE2 hygα-synuclein construct and pTettTS (Clontech) were cotransfected into PC12 TetOn cells (Clontech), using Lipofectamine (Invitrogen) and Plus Reagent (Invitrogen). Single colonies were isolated using cloning cylinders (Sigma) and cells were grown and tested for α-synuclein expression upon induction. Cell lines were subjected to a further round of purification from single colonies to ensure that lines were pure.
PC12 cells were grown in Dulbecco's modified eagle's medium (DMEM, Sigma) supplemented with 10% horse serum (Sigma), 5% fetal bovine serum (Sigma), 100 U/ml penicillin/streptomycin, 2 mM L-glutamine, […] G418 (Invitrogen) and […] hygromycin B (Calbiochem) at 37° C., 10% CO2. To induce differentiation, cells were grown in media containing 1% horse serum and 100 ng/ml nerve growth factor (2.5S, Upstate Biotechnology) and incubated for about 5 days. Cells were induced to express synuclein with […] doxycycline (Sigma).
Cells were induced for 24 hours and then washed twice with media to remove doxycycline. Then cells were incubated in […] media containing either 10 mM 3-methyladenine (3MA, Sigma), 200 nM bafilomycin A1 (Sigma), […] rapamycin (Sigma), […] lactacystin (Sigma), […] epoxomicin (Affinity Research Products Ltd) or carrier controls (water or DMSO (Sigma)). 3MA and lactacystin were made up in water and rapamycin, epoxomicin and bafilomycin were dissolved in DMSO.
After 24 hours the media was replaced with fresh media plus drug and after a further 24 hours cell pellets were collected and stored at −80° C. until required.
Cell pellets were collected and stored at −80° C. until needed. Cells were lysed on ice in lysis buffer: 1% TritonX100, 20 mM TRIS pH7.5, 137 mM NaCl, 1 mM EGTA, 10% glycerol, 1.5 mM MgCl2 and protease inhibitor cocktail (Complete, Roche).
Samples were then mixed with loading buffer: 62.5 mM TRIS pH 6.8, 2% SDS, 10% glycerol, 0.05% bromophenol blue, 100 mM dithiothreitol and 700 mM β-mercaptoethanol and boiled before loading onto 14% denaturing polyacrylamide gels.
Each lane was loaded with protein from a similar number of cells, based on cell counting at the time of seeding. Proteins were transferred onto Hybond ECL nitrocellulose membrane (Amersham). α-Synuclein was detected with an antiHA monoclonal antibody (Covance) at 1:1000 dilution with 4-18 hours incubation. HRP conjugated antimouse antibody (Amersham) at 1:2000 dilution was then added to blots and antibody was detected using ECL blotting reagents (Amersham) and Hyperfilm ECL (Amersham). Blots were stripped and then reprobed for α-tubulin (Sigma) at 1:1000 dilution.
PC12 cell lines as described above (i.e. mitotic and neuronally differentiated wild-type, A53T and A30P PC12 lines) were induced for 24 hours, then doxycycline was removed and the drugs were added for 48 hours. The trends we observed were similar in cells treated with drugs for 24 and 72 hours.

In the case of `CN(C)c1ncnc2c1ncn2[C@@H]1O[C@H](CO)[C@@H](O)[C@H]1O` [DMA, N^6,N^6-dimethyladenosine], the “appearance (size, number) of Q74 aggregates in cells with aggregates” value ([1]; immunofluorescence, drug 15 hours) is reported as “Identical aggregate phenotypes” and the “appearance (size, number) of A19 aggregates in cells with aggregates” value [2] is reported as “Identical aggregate phenotypes”.
With `C[C@@H]1C[C@@H]([C@H](O)CC2CC(=O)NC(=O)C2)C(=O)[C@@H](C)C1` [cycloheximide] the “cell fluorescence (EGFP-Q74 clearance)” value ([3]; 8 h ON then 72 h OFF with drug, 0.2 μg/ml rapamycin, 10 μg/ml cycloheximide) was “increased” and the “numbers of aggregate containing cells / visible aggregates” value ([3]; 8 h ON then 72 h OFF with drug, vs time-matched control) was “increased”.
`CC(=O)N[C@@H](CSC(=O)[C@]1([C@@H](O)C(C)C)NC(=O)[C@H](C)[C@@H]1O)C(=O)O` [lactacystin] was tested, and the “proportions of Q74-expressing cells with aggregates” value ([1]; drug for 15 hours before fixing: 10 mM 3-MA, 0.5 mM DMA, 200 nM BafA1, 0.2 μg/ml rapamycin, 10 μM epoxomicin, 10 μM lactacystin, vs untreated) was “increases”, the “number of aggregate-containing cells” value ([3]; 8 h ON then 48 h OFF with 10 μM epoxomicin or 10 μM lactacystin, vs control) was “increased Q74 aggregation” and the “cell death or overt aggregate formation” value [4] was “did not cause increased cell death or overt aggregate formation”. For the same molecule, the α-synuclein levels ([4]; induced 24 hours, doxycycline removed, drug 48 hours, cycling and differentiated cells, 0.2 mg/ml rapamycin, 10 mM lactacystin, 10 mM epoxomicin [sic]) was “increase”.
